In US10196391B2 (Hoffmann-La Roche Inc., priority 2014, dated 2019):

These compounds were tested on HBV DNA (assay: HBV DNA assay (real-time qPCR) in HepG2.2.15 cells). Conditions: Hepatitis B virus, 144 h, extracellular HBV DNA, 6 days, read-out: IC50 (Anti HBV DNA production activity).
Assay type: cell-based
Protocol: HepG2.2.15 cells (Acs et al. Proc Natl Acad Sci USA, 84, (1987), 4641-4), a constitutively HBV-expressing cell line were cultured in DMEM+Glutamax-I medium (Invitrogen, Carlsbad, Calif., USA), supplemented with 10% fetal bovine serum (Invitrogen) and G418 (Invitrogen) at a final concentration of 200 mg/L and maintained in 5% CO2 at 37° C.
The assay employs real-time qPCR (TaqMan) to directly measure extracellular HBV DNA copy number. HepG2.2.15 cells were plated in 96-well microtiter plates. Only the interior wells were utilized to reduce “edge effects” observed during cell culture, the exterior wells were filled with complete medium to help minimize sample evaporation. On the following day, the HepG2.2.15 cells were washed and the medium was replaced with complete medium containing various concentrations of a test compound in triplicate. 3TC was used as the positive control, while media alone was added to cells as a negative control (virus control, VC). Three days later, the culture medium was replaced with fresh medium containing the appropriately diluted drug. Six days following the initial administration of the test compound, the cell culture supernatant was collected, treated with pronase and then used in a real-time qPCR/TaqMan assay to determine HBV DNA copy numbers. Antiviral activity was calculated from the reduction in HBV DNA levels (IC50). […]
With `CS(=O)(=O)c1ccc(N2CCc3nc(-c4ccccn4)nc(O)c3C2)cc1` [Example 80, 6-(4-methylsulfonylphenyl)-2-(2-pyridyl)-3,5,7,8-tetrahydropyrido-[4,3-d]pyrimidin-4-one] the IC50 was 0.16 µM.

These compounds were tested on HBsAg (assay: HBsAg assay (CLIA) in HepG2.2.15 cells). Conditions: Hepatitis B virus, HepG2.2.15, read-out: IC50 (HBsAg assay).
Assay type: cell-based, HBV
Procedure, shortened: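 IC50 taken from dose-response curves as the concentration halving secreted HBsAg relative to DMSO control. Measured by chemiluminescence immunoassay of culture supernatant from constitutively HBV-expressing HepG2.2.15 cells, seeded at 1.5×10^4/well in duplicate and exposed to three-fold serial compound dilutions at 1% final DMSO.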
With `CS(=O)(=O)c1ccc(N2CCc3nc(-c4ccccn4)nc(O)c3C2)cc1` [Example 80, 6-(4-methylsulfonylphenyl)-2-(2-pyridyl)-3,5,7,8-tetrahydropyrido-[4,3-d]pyrimidin-4-one] the IC50 was 5.94 µM.
In the case of `CCCOc1cc(N2CCc3nc(-c4ccccn4)ncc3C2)cc(F)c1F` [Example 22, 6-(3,4-difluoro-5-propoxy-phenyl)-2-(2-pyridyl)-7,8-dihydro-5H-pyrido[4,3-d]pyrimidine], the IC50 is reported as 0.75 µM.
With `COc1cc(N2CCc3nc(-c4ncccn4)ncc3C2)cc(F)n1` [Example 112, 6-(2-fluoro-6-methoxy-4-pyridyl)-2-pyrimidin-2-yl-7,8-dihydro-5H-pyrido[4,3-d]pyrimidine] the IC50 was 0.553 µM.
With `c1ccc(COc2ccc(N3CCc4nc(-c5ccccn5)ncc4C3)cc2)cc1` [Example 46, 6-(4-benzyloxyphenyl)-2-(2-pyridyl)-7,8-dihydro-5H-pyrido[4,3-d]pyrimidine] the IC50 was 8.79 µM.
For `Fc1cc(F)nc(N2CCc3nc(-c4ncccn4)ncc3C2)c1` [Example 110, 6-(4,6-difluoro-2-pyridyl)-2-pyrimidin-2-yl-7,8-dihydro-5H-pyrido[4,3-d]pyrimidine], the IC50 was 1.44 µM.
Work on `CS(=O)(=O)c1cccc(N2CCc3nc(-c4ccccn4)ncc3C2)c1` [Example 11, 6-(3-methylsulfonylphenyl)-2-(2-pyridyl)-7,8-dihydro-5H-pyrido[4,3-d]pyrimidine] yielded an IC50 of 17.4 µM.
With `COc1c(N2CCc3nc(-c4ncccn4)ncc3C2)ccc(F)c1F` [Example 30, 6-(3,4-difluoro-2-methoxy-phenyl)-2-pyrimidin-2-yl-7,8-dihydro-5H-pyrido[4,3-d]pyrimidine] the IC50 was 9.49 µM.
`COCCOc1cc(N2CCc3nc(-c4ccccn4)ncc3C2)ccc1OC` [Example 58, 6-[4-methoxy-3-(2-methoxyethoxy)phenyl]-2-(2-pyridyl)-7,8-dihydro-5H-pyrido[4,3-d]pyrimidine] was tested, and the IC50 was 20.2 µM.
Compound `CS(=O)(=O)c1ccc(N2CCc3nc(-c4ccccn4)ccc3C2)cc1` [Example 89, 6-(4-methylsulfonylphenyl)-2-(2-pyridyl)-7,8-dihydro-5H-1,6-naphthyridine] has an IC50 of 6.72 µM.
`Fc1cc(N2CCc3nc(-c4ccccn4)ncc3C2)ccc1OCc1ccccc1` [Example 53, 6-(4-benzyloxy-3-fluoro-phenyl)-2-(2-pyridyl)-7,8-dihydro-5H-pyrido[4,3-d]pyrimidine] was tested, and the IC50 was 1.56 µM.
Compound `Clc1ccc(N2CCc3nc(-c4ccccn4)ncc3C2)cc1` [Example 45, 6-(4-chlorophenyl)-2-(2-pyridyl)-7,8-dihydro-5H-pyrido[4,3-d]pyrimidine] has an IC50 of 3.23 µM.
For `COc1ncc(Cl)c(N2CCc3nc(-c4ccccn4)ncc3C2)n1` [Example 69, 6-(5-chloro-2-methoxy-pyrimidin-4-yl)-2-(2-pyridyl)-7,8-dihydro-5H-pyrido[4,3-d]pyrimidine], the IC50 was 0.999 µM.
`COC(=O)c1cc(Br)ccc1N1CCc2nc(-c3ccccn3)ncc2C1` [Example 16, methyl 5-bromo-2-[2-(2-pyridyl)-7,8-dihydro-5H-pyrido[4,3-d]pyrimidin-6-yl]benzoate] showed an IC50 of 13.7 µM.
`COCCCOc1ccc(N2CCc3nc(-c4ccccn4)ncc3C2)cc1OC` [Example 44, 6-[3-methoxy-4-(3-methoxypropoxy)phenyl]-2-(2-pyridyl)-7,8-dihydro-5H-pyrido[4,3-d]pyrimidine] showed an IC50 of 18.9 µM.
`Clc1ccc(N2CCc3nc(-c4ccccn4)ncc3C2)nc1` [Example 36, 6-(5-chloro-2-pyridyl)-2-(2-pyridyl)-7,8-dihydro-5H-pyrido[4,3-d]pyrimidine] gave an IC50 of 1.54 µM.
`CS(=O)(=O)c1ccc(N2CCc3nc(-c4ccc(F)cn4)ncc3C2)cc1` [Example 2, 2-(5-fluoro-2-pyridyl)-6-(4-methylsulfonylphenyl)-7,8-dihydro-5H-pyrido[4,3-d]pyrimidine] showed an IC50 of 10.2 µM.
Work on `c1ccc(-c2ncc3c(n2)CCN(c2ncccn2)C3)nc1` [Example 37, 2-(2-pyridyl)-6-pyrimidin-2-yl-7,8-dihydro-5H-pyrido[4,3-d]pyrimidine] yielded an IC50 of 4.45 µM.
For `COc1cc(OC)cc(N2CCc3nc(-c4ncccn4)ncc3C2)c1` [Example 73, 6-(3,5-dimethoxyphenyl)-2-pyrimidin-2-yl-7,8-dihydro-5H-pyrido[4,3-d]pyrimidine], the IC50 was 1.96 µM.
With `COc1ccnc(N2CCc3nc(-c4ccccn4)ncc3C2)c1F` [Example 70, 6-(3-fluoro-4-methoxy-2-pyridyl)-2-(2-pyridyl)-7,8-dihydro-5H-pyrido[4,3-d]pyrimidine] the IC50 was 1.55 µM.
In the case of `COc1cc(N2CCc3nc(-c4ncccn4)ccc3C2)cc(F)c1F` [Example 97, 6-(3,4-difluoro-5-methoxy-phenyl)-2-pyrimidin-2-yl-7,8-dihydro-5H-1,6-naphthyridine], the IC50 is reported as 16.4 µM.
With `O=[N+]([O-])c1ccccc1N1CCc2nc(-c3ccccn3)ncc2C1` [Example 33, 6-(2-nitrophenyl)-2-(2-pyridyl)-7,8-dihydro-5H-pyrido[4,3-d]pyrimidine] the IC50 was 0.39 µM.
`O=C(NCC(F)(F)F)c1cc(F)cc(N2CCc3nc(-c4ncccn4)ncc3C2)c1` [Example 104, 3-fluoro-5-(2-pyrimidin-2-yl-7,8-dihydro-5H-pyrido[4,3-d]pyrimidin-6-yl)-N-(2,2,2-trifluoroethyl)benzamide] was tested, and the IC50 was 1.24 µM.
In the case of `Fc1ccc(N2CCc3nc(-c4ccccn4)ncc3C2)c(OCc2ccccc2)c1` [Example 38, 6-(2-benzyloxy-4-fluoro-phenyl)-2-(2-pyridyl)-7,8-dihydro-5H-pyrido[4,3-d]pyrimidine], the IC50 is reported as 17.7 µM.
